Measurements from patent US20160016916A1, “Exo Olefin-Containing Nuclear Transport Modulators and Uses Thereof” (KARYOPHARM THERAPEUTICS INC., priority 2013, published 2016).

How the values were obtained:
[1] = molecular target: T1, CRM1 (Homo sapiens, UniProt O14980); assay: CRM1-mediated nuclear export assay (GFP nuclear localization in HeLa cells); format: cell-based; settings: HeLa cells expressing NLS-GFP-NES(PKI), 3 hours, concentration at which approximately 50% of the cells showed nuclear GFP
T1 construct: HeLa cells expressing GFP that was N-terminally fused to a nuclear localization and C-terminally fused to the nuclear export signal of PKI; endogenous in cells; host or cells: HeLa cells expressing an NLS-GFP-NES(PKI) reporter
T1 sequence (O14980 whole entry, the tested form may be a part): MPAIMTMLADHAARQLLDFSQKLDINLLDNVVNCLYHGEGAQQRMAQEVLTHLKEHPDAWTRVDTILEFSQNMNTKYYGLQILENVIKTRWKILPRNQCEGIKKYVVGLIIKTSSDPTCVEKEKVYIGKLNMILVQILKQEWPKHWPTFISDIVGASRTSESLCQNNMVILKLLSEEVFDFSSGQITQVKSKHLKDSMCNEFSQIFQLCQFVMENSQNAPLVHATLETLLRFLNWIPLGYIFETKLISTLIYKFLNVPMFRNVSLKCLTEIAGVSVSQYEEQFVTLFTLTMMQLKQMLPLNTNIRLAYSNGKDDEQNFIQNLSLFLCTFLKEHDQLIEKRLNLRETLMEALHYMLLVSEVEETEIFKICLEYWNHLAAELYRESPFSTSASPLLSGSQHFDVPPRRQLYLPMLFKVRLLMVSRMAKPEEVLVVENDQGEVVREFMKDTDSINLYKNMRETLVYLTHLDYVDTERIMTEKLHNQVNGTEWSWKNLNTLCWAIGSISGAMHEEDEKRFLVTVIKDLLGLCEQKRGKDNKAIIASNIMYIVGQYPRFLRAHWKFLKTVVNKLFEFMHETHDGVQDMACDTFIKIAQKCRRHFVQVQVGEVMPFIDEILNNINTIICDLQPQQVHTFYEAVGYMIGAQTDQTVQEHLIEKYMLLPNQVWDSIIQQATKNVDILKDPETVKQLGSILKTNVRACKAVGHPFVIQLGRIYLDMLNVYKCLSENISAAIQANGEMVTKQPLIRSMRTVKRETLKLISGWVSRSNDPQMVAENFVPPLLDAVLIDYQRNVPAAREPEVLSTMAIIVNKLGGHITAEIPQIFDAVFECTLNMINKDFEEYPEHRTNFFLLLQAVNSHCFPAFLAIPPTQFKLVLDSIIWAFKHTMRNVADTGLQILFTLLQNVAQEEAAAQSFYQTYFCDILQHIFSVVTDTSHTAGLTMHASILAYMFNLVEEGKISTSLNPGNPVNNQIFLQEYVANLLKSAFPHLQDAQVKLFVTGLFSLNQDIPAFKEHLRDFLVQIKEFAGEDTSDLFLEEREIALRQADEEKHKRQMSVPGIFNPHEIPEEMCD
Method: HeLa cells expressing GFP that was N-terminally fused to a nuclear localization and C-terminally fused to the nuclear export signal of PKI were treated with different concentrations of test compounds for 3 hours and then scored for nuclear localization of GFP.
HeLa cells were cultured in Dulbecco's modified Eagle's medium (DMEM) supplemented with 10% (vol/vol) heat-inactivated fetal calf serum, 2 mM L-glutamine 0.1% sodium bicarbonate, and 20 μg/ml gentamicin. The cells were plated in 96-well plates at 0.02×10^6 cells/well and incubated overnight. The next day, compound was added to the cells and incubated for another 3 hours. After 3 hours, GFP subcellular localization was monitored using a Leica DMI6000 microscope.

[2] = tested on: MM1.S cells; assay: CellTiter 96 AQueous One Solution cell proliferation assay (MTS); format: cell-based; settings: Homo sapiens, 72 h of treatment, MTS absorbance at 490 nm
From the text: The CellTiter 96® AQueous One Solution cell proliferation assay (Promega) was used on MM1.S cells to study the cytotoxic and cytostatic properties of the compounds. The assay is based on the cleavage of the tetrazolium salt, MTS, in the presence of an electron-coupling reagent PES (phenazine ethosulfate). The MTS tetrazolium compound is bioreduced by cells into a colored formazan product that is soluble in tissue culture medium. This conversion is presumably accomplished by NADPH or NADH produced by dehydrogenase enzymes in metabolically active cells. Assays are performed by adding a small amount of the CellTiter 96® AQueous One solution reagent directly to culture wells, incubating for 1-4 hours and then recording the absorbance at 490 nm with a 96-well plate reader.
The cells were seeded at 5×10^3 to 1.5×10^4 cells (depending on cell type) in each well of 96-well plate in 100 μL of fresh culture medium and adherent cells were allowed to attach for overnight. The stock solutions of the compounds were diluted in cell culture medium to obtain eight concentrations of each drug, ranging from 1 nM to 30 μM and DMSO at less than 1% v/v was used as a negative control. After 72 h of treatment, 20 μL of CellTiter 96® AQueous reagent was added into each well of the 96-well assay plates and the plate was incubate at 37° C. for 1-4 hours in a humidified, 5% CO2 atmosphere. Then the absorbance of each well was recorded at 490 nm by using a 96-well plate reader. In most cases, the assay was performed in triplicates and the results were presented as half maximal inhibitory concentration (IC50). Optical density versus compound concentration was plotted and analyzed using non linear regression equations (Excel Fit) and the IC50 for each compound was calculated.

Row | SMILES | EC50 [1] | IC50 [2]
1 | C=C(Cn1cnc(-c2cc(C(F)(F)F)cc(C(F)(F)F)c2)n1)C(=O)N1CC(F)(F)C1 [Compound 5, 2-((3-(3,5-bis(trifluoromethyl)phenyl)-1H-1,2,4-triazol-1-yl)methyl)-1-(3,3-difluoroazetidin-1-yl)prop-2-en-1-one] | 1800 nM | 90 nM
2 | C=C(Cn1cnc(-c2cc(C(F)(F)F)cc(C(F)(F)F)c2)n1)C(=O)NNc1cnccn1 [Compound 7, 2-((3-(3,5-bis(trifluoromethyl)phenyl)-1H-1,2,4-triazol-1-yl)methyl)-N′-(pyrazin-2-yl)acrylohydrazide] |  | 10 nM
3 | C=C(Cn1nnc(-c2cc(C(F)(F)F)cc(C(F)(F)F)c2)n1)C(=O)OC(C)C [Compound 11, isopropyl 2-((5-(3,5-bis(trifluoromethyl)phenyl)-2H-tetrazol-2-yl)methyl)acrylate] | 15000 nM | 
4 | C=C(Cn1cnc(-c2cc(OC)cc(C(F)(F)F)c2)n1)C(=O)OC(C)C [Compound 3, isopropyl 2-((3-(3-methoxy-5-(trifluoromethyl)phenyl)-1H-1,2,4-triazol-1-yl)methyl)acrylate] | 1800 nM | 50 nM
5 | C=C(Cn1cnc(-c2cc(OC)cc(C(F)(F)F)c2)n1)C(=O)OCC [Compound 4, ethyl 2-((3-(3-methoxy-5-(trifluoromethyl)phenyl)-1H-1,2,4-triazol-1-yl)methyl)acrylate] | 3800 nM | 
6 | C=C(Cn1cnc(-c2cc(C(F)(F)F)cc(C(F)(F)F)c2)n1)c1nnco1 [Compound 8, 2-(3-(3-(3,5-bis(trifluoromethyl)phenyl)-1H-1,2,4-triazol-1-yl)prop-1-en-2-yl)-1,3,4-oxadiazole] | 230 nM | 30 nM
7 | C=C(Cn1cnc(-c2cc(C(F)(F)F)cc(C(F)(F)F)c2)n1)C(=O)NNc1ccccn1 [Compound 6, 2-((3-(3,5-bis(trifluoromethyl)phenyl)-1H-1,2,4-triazol-1-yl)methyl)-N′-(pyridin-2-yl)acrylohydrazide] | 900 nM | 70 nM
8 | C=C(Cn1nnc(-c2ccccc2)n1)C(=O)N1CCCCC1 [Compound 10, 2-((5-phenyl-2H-tetrazol-2-yl)methyl)-1-(piperidin-1-yl)prop-2-en-1-one] | > 30000 nM | 
9 | C=C(Cn1cnc(-c2cc(C(F)(F)F)cc(C(F)(F)F)c2)n1)C(=O)OC(C)C [Compound 1, isopropyl 2-((3-(3,5-bis(trifluoromethyl)phenyl)-1H-1,2,4-triazol-1-yl)methyl)acrylate] | 900 nM | 100 nM
10 | C=C(Cn1nnc(-c2ccccc2)n1)c1nnco1 [Compound 9, 2-(3-(5-phenyl-2H-tetrazol-2-yl)prop-1-en-2-yl)-1,3,4-oxadiazole] | 15000 nM | 
